From patent publication US9663545B2, “Organometallic 2-cyano-2-aminobenzoate-propyl derivates and their use as anthelmintics” (UNIVERSITÄT ZÜRICH, priority 2013, dated 2017)

Assay: stability in sheep plasma (LC-MS)
Conditions: 37° C., different time intervals, diazepam internal standard, new peak of the hydrolysed product arises
Method: Compound 8a and diazepam (internal standard) were incubated at 37° C. for different time intervals and their stability was checked using an LC-MS technique.

2-cyano-2-(4-((trifluoromethyl)thio)benzamido)propyl ferrocenoate [Compound 8a]
stability in sheep plasma (LC-MS peak of the compound): decreasing within 24 hours
